Laboratory results published in ChEMBL document CHEMBL1201862, “PubChem BioAssay data set” (2004).
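Five concentrations, 48 hours, 96-well plates. GI50 is the concentration that inhibits growth by half.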 Calls of active or inactive are those of the source. Cut-off read from the data, not from the text of the source: active = GI50 up to about 1.1 µM and inactive = higher.

How the values were obtained:
Assay in all cases: NCI tumour cell line growth inhibition, 48 h
786-0 = system: 786-0
A498 = system: A498
A549 = system: A549
ACHN = system: ACHN
BT-549 = system: BT-549
CAKI-1 = system: CAKI-1
CCRF-CEM = system: CCRF-CEM
COLO 205 = system: COLO 205
DU-145 = system: DU-145
EKVX = system: EKVX
HCC 2998 = system: HCC 2998
HCT-116 = system: HCT-116
HCT-15 = system: HCT-15
HL-60 = system: HL-60
HOP-62 = system: HOP-62
HOP-92 = system: HOP-92
HT-29 = system: HT-29
Hs-578T = system: Hs-578T
IGROV-1 = system: IGROV-1
K562 = system: K562
KM12 = system: KM12
LOX IMVI = system: LOX IMVI
M14 = system: M14
MCF7 = system: MCF7
MDA-N = system: MDA-N
MOLT-4 = system: MOLT-4
Malme-3M = system: Malme-3M
NCI-H226 = system: NCI-H226
NCI-H23 = system: NCI-H23
NCI-H460 = system: NCI-H460
NCI-H522 = system: NCI-H522
NCI/ADR-RES = system: NCI/ADR-RES
OVCAR-3 = system: OVCAR-3
OVCAR-4 = system: OVCAR-4
OVCAR-5 = system: OVCAR-5
OVCAR-8 = system: OVCAR-8
PC-3 = system: PC-3
RPMI-8226 = system: RPMI-8226
RXF 393 = system: RXF 393
SF-268 = system: SF-268
SF-295 = system: SF-295
SF-539 = system: SF-539
SK-MEL-28 = system: SK-MEL-28
SK-MEL-2 = system: SK-MEL-2
SK-MEL-5 = system: SK-MEL-5
SK-OV-3 = system: SK-OV-3
SN12C = system: SN12C
SNB-19 = system: SNB-19
SNB-75 = system: SNB-75
SR = system: SR
SW-620 = system: SW-620
T47D = system: T47D
TK-10 = system: TK-10
U-251 = system: U-251
UACC-257 = system: UACC-257
UO-31 = system: UO-31

Measured: GI50

Cc1cc(S(=O)(=O)Nc2nc(N)nc(N(C)C)n2)c(SC(C(=O)O)c2ccccc2)cc1Cl (stereo unspecified)
inactive: 786-0 > 10 µM | A498 > 10 µM | A549 > 10 µM | ACHN > 10 µM | BT-549 > 10 µM | CAKI-1 > 10 µM | CCRF-CEM > 10 µM | COLO 205 > 10 µM | DU-145 > 10 µM | EKVX > 10 µM | HCC 2998 > 10 µM | HCT-116 > 10 µM | HL-60 > 10 µM | HOP-62 > 10 µM | HOP-92 > 10 µM | HT-29 > 10 µM | Hs-578T > 10 µM | IGROV-1 > 10 µM | K562 > 10 µM | KM12 > 10 µM | LOX IMVI > 10 µM | M14 > 10 µM | MCF7 > 10 µM | MDA-N > 10 µM | MOLT-4 > 10 µM | Malme-3M > 10 µM | NCI-H226 > 10 µM | NCI-H23 > 10 µM | NCI-H460 > 10 µM | NCI-H522 > 10 µM | NCI/ADR-RES > 10 µM | OVCAR-3 > 10 µM | OVCAR-4 > 10 µM | OVCAR-5 > 10 µM | OVCAR-8 > 10 µM | PC-3 > 10 µM | RPMI-8226 > 10 µM | RXF 393 > 10 µM | SF-268 > 10 µM | SF-295 > 10 µM | SF-539 > 10 µM | SK-MEL-28 > 10 µM | SK-MEL-2 > 10 µM | SK-MEL-5 > 10 µM | SK-OV-3 > 10 µM | SN12C > 10 µM | SNB-19 > 10 µM | SNB-75 > 10 µM | SR > 10 µM | SW-620 > 10 µM | T47D > 10 µM | TK-10 > 10 µM | U-251 > 10 µM | UACC-257 > 10 µM | UO-31 > 10 µM
> 10 µM: HCT-15
